From article PMC6148290, “Endogenous metabolites of vitamin E limit inflammation by targeting 5-lipoxygenase” (Nature Communications, 2018)
Read-outs that look alike come from different tables or passages of the source.

Assays:
[1] = target: T1, human microsomal prostaglandin E2 synthase (mPGES)-1 (Homo sapiens, UniProt O14684); experiment: mPGES-1 activity in microsomal preparations of IL-1β-treated A549 cells
T1 sequence (O14684 1-152): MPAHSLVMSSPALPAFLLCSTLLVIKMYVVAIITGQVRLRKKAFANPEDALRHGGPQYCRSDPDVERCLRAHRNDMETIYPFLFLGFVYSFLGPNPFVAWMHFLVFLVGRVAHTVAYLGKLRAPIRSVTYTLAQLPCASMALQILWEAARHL
Experimental: Microsomal membranes of interleukin-1β-treated A549 cells were prepared as source of mPGES-1[67]. […] Ice-cold homogenization buffer (0.1 M potassium phosphate buffer pH 7.4, 1 mM phenylmethanesulphonyl fluoride, 60 µg/ml soybean trypsin inhibitor, 1 µg/ml leupeptin, 2.5 mM glutathione, and 250 mM sucrose) was added, and cells were incubated for 15 min on ice prior to sonication (3 × 20 s, 4 °C). […] Microsomes were suspended in homogenization buffer and diluted in potassium phosphate buffer (0.1 M, pH 7.4) containing 2.5 mM glutathione. Membranes (2.5–5 µg total protein) were pre-incubated with LCMs for 15 min at 4 °C, and PGE2 formation was initiated by addition of PGH2 (20 µM, final concentration). The reaction was terminated after 1 min by addition of one volume stop solution (40 mM FeCl2, 80 mM citric acid and 1 nmol of the internal standard 11β-PGE2, Cayman Chemicals).

COX-2 [2] = target: T2, COX-2 (Homo sapiens, UniProt P35354); experiment: COX-2-dependent PGE2 formation in LPS-activated monocytes; type: cell-based; design: endogenous in cells; host or cells: human monocytes, LPS-stimulated for 24 h; conditions: up to 10 µM
T2 sequence (P35354 18-604): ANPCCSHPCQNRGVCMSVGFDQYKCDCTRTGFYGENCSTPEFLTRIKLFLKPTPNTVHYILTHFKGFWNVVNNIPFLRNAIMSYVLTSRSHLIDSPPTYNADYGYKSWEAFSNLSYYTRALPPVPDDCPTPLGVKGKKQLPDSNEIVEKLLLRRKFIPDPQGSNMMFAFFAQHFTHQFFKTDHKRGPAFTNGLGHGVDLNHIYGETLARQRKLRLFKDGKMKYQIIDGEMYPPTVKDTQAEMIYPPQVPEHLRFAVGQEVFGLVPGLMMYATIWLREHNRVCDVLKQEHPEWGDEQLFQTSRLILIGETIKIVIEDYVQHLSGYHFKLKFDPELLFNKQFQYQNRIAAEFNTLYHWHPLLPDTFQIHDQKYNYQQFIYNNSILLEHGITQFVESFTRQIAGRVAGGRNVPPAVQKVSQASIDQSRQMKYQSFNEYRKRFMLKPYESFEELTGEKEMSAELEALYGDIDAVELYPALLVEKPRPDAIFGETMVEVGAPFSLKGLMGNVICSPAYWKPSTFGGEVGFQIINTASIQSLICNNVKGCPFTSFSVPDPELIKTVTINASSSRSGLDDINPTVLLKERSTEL
Experimental: Cells were washed and medium was exchanged. Freshly isolated PMNL (1 × 10^7) and stably transfected HEK-293 (1 × 10^6) cells were suspended in PBS pH 7.4 containing 1 mg/ml glucose and 1 mM CaCl2. […] A23187- and A23187/AA-treated PMNL and A23187/AA-treated HEK-293 (5-LO_wt), HEK-293 (5-LO_3W) and HEK-293 (5-LO_Arg101Asp) cells produced 135 ± 21, 636 ± 112, 300 ± 59, 133 ± 29, 55 ± 9 ng 5-LO products, respectively. PMNL synthesized 29 ± 6 ng 12-HETE and 97 ± 23 ng 15-HETE when challenged with A23187/AA. 5-LO products from monocytes were analyzed by UPLC-MS/MS.
LPS-activated monocytes were treated with A23187 (2.5 µM) and AA (20 µM) to induce lipid mediator biosynthesis as described for LO product formation. Human blood was pre-incubated with vehicle (DMSO) or α-T-13′-COOH (4a, 100 nM) for 10 min, primed with LPS (1 µg/ml) for 30 min and stimulated with N-formyl-methionyl-leucyl-phenylalanine (fMLP, Sigma-Aldrich; 1 µM) for 15 min at 37 °C.

COX-2 [3] = target: T2, COX-2; experiment: Activity of isolated COX-2; type: biochemical; design: purchased Cayman Chemicals; conditions: up to 10 µM
Experimental: Purified bovine COX-1 (Cayman Chemicals; 50 units) or human recombinant COX-2 (Cayman Chemicals; 20 units) in 100 mM Tris buffer pH 8, 5 mM glutathione, 5 µM hemoglobin, and 100 µM EDTA were pre-incubated with LCMs for 5 min at 4 °C followed by 1 min at 37 °C. Formation of COX-derived 12(S)-hydroxy-5-cis-8,10-trans-heptadecatrienoic acid (12-HHT) was initiated by addition of AA (COX-1: 5 μM; COX-2: 2 μM).

[4] = LCM concentrations in plasma and peritoneal exudate of mice with peritonitis (UPLC-MS/MS); type: in vivo; conditions: CD-1, mouse; for concentration at 240 min: ip, 10 mg/kg i.p., 240 min post zymosan
Experimental: Mice were killed by inhalation of CO2 after another 30 min for determination of LTC4 levels and vascular permeability and after 4 h for the analysis of LTB4 levels, lipidomic profiles and immune cell infiltration. Cell infiltration and lipid mediator profiles during resolution were studied after 18 h. Peritoneal exudates were collected and cells counted after vital trypan blue staining. LTC4, LTB4, and PGE2 were analyzed in the exudate by enzyme immunoassays (Enzo Life Sciences, Lörrach, Germany) according to manufacturer's instructions. To assess vascular permeability, Evans blue dye (40 mg/kg in saline, 0.3 ml; Sigma-Aldrich) was injected into the tail vain immediately before the induction of peritonitis. Exudates were centrifuged (3000 × g, 5 min) and the absorbance of the supernatants was measured at 610 nm using a Beckman Coulter DU730 spectrophotometer. To investigate the effect of α-T (1a) on the accumulation of α-T-13'-COOH (4a) in infiltrated leukocytes after peritonitis has been established, vehicle or α-[…].) were given 1 h before and/or 4 h post zymosan injection, and mice were killed after another 1.5 h. Leukocytes were obtained from peritoneal exudates by centrifugation (1200 × g, 10 min, 4 °C). Lipids, including LCMs, were extracted from PMNL, murine peritoneal exudates or murine plasma by successive addition of PBS pH 7.4, methanol, chloroform and saline (final ratio: 14:34:35:17)[68]. […] Multiple reaction monitoring was used to detect LCMs in the negative ion mode. The precursor-to-product ion transitions were selected according to Jiang et al.[69] and are listed in Supplementary Table 3. The ion spray voltage was set to -4500 V, the heated capillary temperature to 450 °C, the sheath gas pressure to 50 psi, the auxiliary gas pressure to 40 psi, and the declustering potential to 80 eV (for Ts) or 110 eV (for TEs). Collision energies and lower limits of quantitation are listed in Supplementary Table 3.

Cc1c(C)c2c(c(C)c1O)CC[C@@](C)(CCCC(C)CCCC(C)CCCC(C)C(=O)O)O2 (stereo partly drawn) [4a, 13-((2R)-6-hydroxy-2,5,7,8-tetramethylchroman-2-yl)-2,6,10-trimethyltridecanoic acid]
IC50 [1]: 8.8 µM
inhibition of COX-2-dependent PGE2 formation in activated human monocytes (COX-2 [2]): not inhibited
inhibition of human recombinant COX-2 (COX-2 [3]): not inhibited
concentration at 30 min ([4]; peritoneal exudate, endogenous, 30 min post zymosan injection, read-out: α-T-13′-COOH (4a) concentration in peritoneal exudate): ≤ 200 nM
concentration at 240 min ([4]; peritoneal exudate, read-out: α-T-13′-COOH (4a) concentration in peritoneal exudate): 3900 nM
concentration at 240 min ([4]; plasma, read-out: α-T-13′-COOH (4a) concentration in plasma): 1400 nM
